Test results taken from patent US6100256A, “Use of NK-1 receptors antagonists for treating schizophrenic disorders” (priority 1996, dated 2000).
Like-named read-outs stand apart in the source and are kept apart here.

Molecular target: T1, NK-1 receptor (Meriones unguiculatus, UniProt Q5DUB1)
T1 construct: from tissue; host or cells: central nervous system of living Mongolian gerbils (in vivo, agonist infused i.c.v.)
Experiment: Gerbil foot-tapping induced by central NK-1 receptor agonist (GR73632)
Assay type: in vivo, Mongolian gerbils
Details: iv
Text: Assay 2: Gerbil Foot-Tapping
CNS-penetrant NK-1 receptor antagonists for use in the present invention can be identified by their ability to inhibit foot tapping in gerbils induced by anxiogenic agents (such as pentagastrin) or central infusion of NK-1 receptor agonists such as GR73632, or caused by aversive stimulation such as foot shock or single housing, based on the method of Rupniak & Williams, Eur. J. Pharmacol., 1994, 265, 179.
Male or female Mongolian gerbils (35-70 g) are anaesthetised by inhalation of an isoflurane/oxygen mixture to permit exposure of the jugular vein in order to permit administration of test compounds or vehicle in an injection volume of 5 ml/kg i.v. Alternatively, test compounds may be administered orally or by subcutaneous or intraperitoneal routes. A skin incision is then made in the midline of the scalp to expose the skull. […]

T1 sequence (Q5DUB1 whole entry, the tested form may be a part): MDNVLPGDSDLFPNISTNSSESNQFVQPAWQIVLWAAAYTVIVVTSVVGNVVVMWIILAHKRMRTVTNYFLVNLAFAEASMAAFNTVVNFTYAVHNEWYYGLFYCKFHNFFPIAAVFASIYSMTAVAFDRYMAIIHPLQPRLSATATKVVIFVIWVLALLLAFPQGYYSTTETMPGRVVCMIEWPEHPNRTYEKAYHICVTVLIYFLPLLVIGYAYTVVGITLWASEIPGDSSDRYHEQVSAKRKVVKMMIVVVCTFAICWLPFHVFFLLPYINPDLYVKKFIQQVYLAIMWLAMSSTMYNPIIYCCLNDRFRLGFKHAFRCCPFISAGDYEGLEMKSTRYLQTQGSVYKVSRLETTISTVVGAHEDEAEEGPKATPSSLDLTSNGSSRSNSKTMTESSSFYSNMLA

## OC[C@@H](O[C@H]1OCCN(Cc2nc[nH]n2)[C@H]1c1ccc(F)cc1)c1cc(C(F)(F)F)cc(C(F)(F)F)c1 [2-(R)-(1-(S)-(3,5-bis(trifluoromethyl)phenyl)-2-hydroxyethoxy)-3-(S)-(4-fluorophenyl)-4-(1,2,4-triazol-3-yl)methylmorpholine]
5 min, i.v., 5 mins., administered immediately prior to central NK1 agonist challenge, read-out: gerbil foot-tapping (5 mins.): ID50
  ED50: 0.38 mg/kg
24 hrs. prior to central NK1 agonist challenge, read-out: gerbil foot-tapping (24 hrs.): ID50
  ED50: 2.2 mg/kg
